In patent publication US12414948B2, “Methods” (INTRA-CELLULAR THERAPIES, INC., priority 2022, dated 2025):

Legend:
[1] = test system: hippocampal microglia mRNA (Il1b, Il6, Tnfa, Nlrp3, Csf1r); experiment: mRNA (RT-qPCR) in microglia enriched from rat hippocampus after LPS; format: in vivo; settings: rats, LPS 500 μg/kg; label LPS = LPS + vehicle, label Luma = Luma 3 mg/kg 16 h after LPS; microglia isolated +18 h; normalized to control (Dct)
Experimental: Microglia Enrichment. […] Brain tissue is then processed through a dounce homogenizer followed by passages through 16- and 20-gauge needles. One mL of medium A is added to wash cell suspension, which is passed through a […] cell strainer and kept on ice. Next, 6 mL of 100% Percoll solution (9 parts of Percoll [GE Healthcare, Chicago, IL] and 1 part of HBSS) is added to obtain a 75% Percoll solution. The 75% Percoll cell suspension is then underlaid a layer of 25% Percoll solution containing Phenol red, which has a layer of PBS on top. The discontinuous Percoll density gradient is layered as followed: 75%, 25%, and 0% isotonic Percoll (PBS) to isolate hippocampal microglia. The gradients are then centrifuged at 4° C. for 25 minutes at 3,000 rpm in swinging buckets with minimal acceleration and deceleration and no brake. After centrifugation, the top layer containing myelin and debris (interface PBS/25% Percoll) is removed and the cellular layer at the 25%/75% interphase is collected and washed. Pilot experiments compare the gene expression of the different fractions and validated the presence of microglia in the interphase layer. The final pellet is resuspended in 350 μL of Buffer RLT from Qiagen microkit (Qiagen) to perform RNA extraction according to the manufacturer's instructions.
Exploratory experiments reveal that in microglia-enriched fractions from rat hippocampi, inflammation is returned closer to background levels at +26 hours after a dose of LPS. Thus, an earlier time point of +18 h after the LPS injection is selected to assess potential changes indicative of inflammation.
Hippocampi on both sides of the brain are collected 2 hours later (+18 hour from LPS injection) and microglia are rapidly isolated in an enriched fraction by Percoll gradient. RNA is extracted from the resulting, reconstituted cell pellet and RT-qPCR is performed. The results are shown in Table 7 as relative change in mRNA levels for each cytokine gene (Il1b, Il6, Tnfa, Nlrp3, Csf1r) normalized to the control group using the Dct method (n=8-12 per group): […]

[2] = test system: hippocampal cytokine mRNA (Il1b, Il6, Tnfa, Il10); experiment: Hippocampal cytokine mRNA (qRT-PCR) after co-injection of LPS and lumateperone; format: in vivo, mouse; settings: mice, 2 h, relative change normalized to control (Dct method)
Experimental: All other reagents are obtained in the highest purity available from Sigma-Aldrich (St. Louis, MO) unless otherwise noted. […] Some rodents are given a cotreatment with a subcutaneous (SC) injection of lipopolysaccharide (LPS, 500 μg/kg; Sigma-Aldrich, ref #0127:B8) diluted in 0.9% injectable saline while control group animals receive injections of all vehicles matching the experimental conditions. […] On day 2, either no injection for naïve rats, or saline or LPS is injected (1 mg/kg, SC).
Animals. Adult, male C57BL/6 mice weighing 28-30 grams at the time of the experiment are housed in groups of 4 or 5 in small cages. Adult, male Sprague-Dawley rats weighing 175-200 grams at the time of arrival after shipping are housed in pairs. All animals are housed under standard laboratory housing conditions with a 12-hour light/dark cycle and ad libitum access to food and water.
Tissue Collection. […] Rats are euthanized 18 hours after LPS injection for sample collection. Hippocampi from mice and rats are rapidly dissected under RNAse-free conditions and placed in 1.5 mL Eppendorf tubes. When appropriate, samples are snap frozen in liquid nitrogen prior to storage at −80° C. until further analysis. Trunk blood is collected from mice into serum collection tubes, allowed to clot at room temperature for 1 hour, then centrifuged at 1,500 g for 10 minutes at 4° C.
Quantitative Real-Time PCR. Mouse hippocampal tissue is homogenized with glass beads in 1 mL of TRIzol reagent using a BeadBeater (Biospec Products, Bartlesville, OK). Heavy phase-lock gel tubes enabled separation of phases following the addition of 400 μL chloroform to the sample and centrifugation at 12,000 rpm for 10 minutes at room temperature. RNA is extracted using Qiagen Rneasy kit (Qiagen, Hilden, Germany). For cDNA synthesis, 2 μg of total RNA is used (SuperScript IV Reverse Transcriptase; ThermoFisher Scientific, Waltham, MA). The purity and concentration of RNA is measured with a Nanodrop spectrophotometer; the optical density (OD) 260/280 and OD 260/230 are within 1.8-2.3. In the hippocampus, 4 key markers of pro- and anti-inflammatory cytokines and chemokines (Il1b: ID Mm00434228_m1, Tnfa: ID Mm00443258_m1, 116: ID Mm00446190_m1, and I110: ID Mm01288386_m1; ThermoFisher Scientific) are initially chosen for analysis (n=5-12 per group). In subsequent experiments, the transcripts for other markers of inflammation are chosen for analysis including Icam1 (ID Mm00516023_m1; a cell adhesion molecule involved in immune cell migration), Cldn5 (ID Mm00727012_s1; a tight junctions protein), colony stimulating factor 1 (Csf1: ID Mm00432686_m1; a factor that regulates microglia function) and its receptor Csf1r (ID Mm01266652_m1), and the nucleotide binding and oligomerization domain-like receptor family pyrin domain-containing 3 inflammasome complex (Nlrp3: Mm00840904_m1). Gapdh (ID Mm99999915_g1) is chosen as a housekeeping gene. QuantStudio 7 (ThermoFisher Scientific) is used for analyzing the plates (MicroAmp Optical 384-well plates; Applied Biosystems, Waltham, MA, and ThermoFisher Scientific) that are loaded with TaqMan Universal Master Mix II without uracil-DNA glycosylate in a 20 μl reaction volume using 100 ng cDNA per well. All mRNAs are measured by qRT-PCR on ABI Prism 7900HT system using TaqMan Gene Expression Assays. Ct values of genes of interest are normalized to that of the reference gene (Gapdh).
Specific cytokines are elevated in serum or plasma of patients with MDD and other psychiatric disorders. Here, the gene and protein expression of a subset of pro- and anti-inflammatory cytokines is measured in mouse brain in response to an inflammatory challenge using a single dose of LPS (500 μg/kg) to induce acute brain inflammation. […] The results are shown in Table 1A as relative change in mRNA levels for each cytokine gene (Il1b, Il6, Tnfa, Il10) normalized to the control group using the Dct method (n=5-12 per group): […]

[3] = Luma 0.3 mg/kg IP co-injected with LPS 500 μg/kg SC
[4] = Luma 3 mg/kg IP co-injected with LPS 500 μg/kg SC
[5] = Luma 8 mg/kg IP co-injected with LPS 500 μg/kg SC

## CN1CCN2c3c(cccc31)[C@@H]1CN(CCCC(=O)c3ccc(F)cc3)CC[C@@H]12 [Luma, lumateperone]
[1]
  Hippocampal microglial cytokine mRNA expression IL-1b: 0.38
  Hippocampal microglial cytokine mRNA expression IL-6: −0.22
  Hippocampal microglial cytokine mRNA expression TNF-alpha: −1.00
  Hippocampal microglial mRNA expression Csf1R: −0.05
  Hippocampal microglial mRNA expression NLRP3: −0.48
[2]; [3]
  Hippocampal cytokine mRNA expression IL-6: 0.52
  Hippocampal cytokine mRNA expression IL-10: −0.28
  Hippocampal cytokine mRNA expression TNF-alpha: 0.43
[2]; [4]
  Hippocampal cytokine mRNA expression IL-1b: 0.85
  Hippocampal cytokine mRNA expression IL-6: 0.15
  Hippocampal cytokine mRNA expression TNF-alpha: −0.09
[2]; [5]
  Hippocampal cytokine mRNA expression IL-1b: 0.43
  Hippocampal cytokine mRNA expression IL-6: 0.16
  Hippocampal cytokine mRNA expression TNF-alpha: −0.24

## lipopolysaccharide [LPS, reference compound]
[1]
  Hippocampal microglial cytokine mRNA expression IL-1b: 2.82
  Hippocampal microglial cytokine mRNA expression IL-6: 0.89
  Hippocampal microglial cytokine mRNA expression TNF-alpha: −0.28
  Hippocampal microglial mRNA expression Csf1R: 0.50
  Hippocampal microglial mRNA expression NLRP3: 0.71
[2]; LPS 500 μg/kg SC + vehicle
  Hippocampal cytokine mRNA expression IL-1b: 2.88
  Hippocampal cytokine mRNA expression IL-6: 1.03
  Hippocampal cytokine mRNA expression IL-10: 0.43
  Hippocampal cytokine mRNA expression TNF-alpha: 1.75
